Experimental data as given in patent US5716797A, “Stable two-part reagent for the measurement of creatine kinase activity” (Wako Pure Chemical Industries, Ltd., priority 1995, dated 1998).

How the values were obtained:
[1] = Solubility of SH compounds in the enzyme solution; settings: as CK reactivator in the enzyme solution
CK activity = settings: Scand. J. Clin. Lab. Invest. 39, 737-742 (1979); cited from earlier work
[2] = biological target: T1, creatine kinase (CK) in human serum (Homo sapiens, UniProt P06732); experiment: Inhibitory effect of oxidized products of SH compounds on CK activity (HK/G6PDH UV method, NAC 26 mM as reactivator); format: biochemical; settings: for CK activity value: NAC 26 mM, 37° C.
T1 construct: Five fresh human serum samples were used; from tissue; host or cells: fresh human serum
T1 sequence (P06732 whole entry): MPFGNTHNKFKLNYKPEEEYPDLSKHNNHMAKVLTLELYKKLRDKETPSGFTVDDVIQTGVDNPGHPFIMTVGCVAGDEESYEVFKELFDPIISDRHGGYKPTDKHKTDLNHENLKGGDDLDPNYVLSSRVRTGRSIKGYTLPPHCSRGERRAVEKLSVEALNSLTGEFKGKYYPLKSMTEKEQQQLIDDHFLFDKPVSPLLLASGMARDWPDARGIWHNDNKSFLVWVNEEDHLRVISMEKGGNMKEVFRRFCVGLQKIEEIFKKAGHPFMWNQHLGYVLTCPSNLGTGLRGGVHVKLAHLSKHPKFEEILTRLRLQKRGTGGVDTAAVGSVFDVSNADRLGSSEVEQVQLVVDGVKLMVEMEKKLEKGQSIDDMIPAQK
Description: Investigation on the inhibitory effect of oxidized products of SH compounds on CK activity
Thus, oxidized products of the SH compounds, respectively, were obtained.
NAC (26 mM) as CK reactivator, each 5 mM of SH compound oxidized product obtained above, 2.6 mM of ADP, 3.9 u/ml of HK (available from Oriental Yeast Co., Ltd.), 8.0 u/ml of G6PDH (available from Oriental Yeast Co., Ltd.), 2.6 mM of NADP, 21 mM of glucose, 10 mM of magnesium acetate, 6.5 mM of AMP, 0.013 mM of APSA, 0.1% (w/v) of sodium azide and 2 mM of EDTA-2Na were dissolved in 128 mM imidazole-acetate buffer (pH 6.7). The thus obtained solutions were adjusted to pH 6.7 with sodium hydroxide to obtain enzyme solutions.
An enzyme solution containing no SH compound oxidized product was prepared as a control standard solution.
(§1) Five fresh human serum samples were used.
(§2) To 8 μl of each sample was added 320 μl of each enzyme solution, followed by preincubation for 5 minutes. Then, 80 μl of the substrate solution was added to initiate the reaction and the change of absorbance per minute was measured for 3 minutes from 2 minutes after the addition of the substrate solution. The CK activity value was calculated from the molecular extinction coefficient of the NADPH produced.
(§3) As a measuring apparatus, an Autoanalyzer Hitachi Model 7150 was used, and the measurement was carried out at 37° C. by use of dual wavelength (λ1 =405 nm, λ2 =340 nm).
Tables 2 and 3 show the CK activity values of the 5 samples in each case and the average thereof.

[3] = system: creatine kinase (CK) in human serum; experiment: CK activity measured with enzyme solutions containing SH compounds as CK reactivator, fresh and after 1 month of storage (Example 1 / Comparative Example 1); format: biochemical; settings: for CK activity value, Average: average of 5 samples; for CK activity, relative value: NAC just after preparation = 100%
Description: The resulting solution was adjusted to pH 6.7 with sodium hydroxide and stored at a predetermined temperature for a predetermined period. The thus obtained solution were used as enzyme solutions.
as §1, §2, §3
Enzyme solutions were prepared in the same manner as in Example 1 by use of the same reagents as in Example 1 except for using a predetermined concentration(s) of one or two SH compounds properly selected from the above-mentioned CK reactivators, in place of the CK reactivator(s) used in Example 1.
CK activity was measured in the same manner as in Example 1.

[4] = system: creatine kinase (CK) in human serum; experiment: CK activity measured with enzyme and substrate solutions stored at 10° C. for up to 7 months (Example 2 / Comparative Example 2); format: biochemical; settings: for relative value of CK activity: enzyme solution prepared at the time of use = 100%
Description: An enzyme solution was prepared in the same manner as in Example 1 by use of the same reagents as in Example 1 except for using 100 mM of TG in place of the CK reactivator(s) used in Example 1.
Different 10 fresh human serum samples were used for different measuring operations.
CK activity was measured by the same procedure as described in Example 1 except for using the above-mentioned enzyme solution and substrate solution, both solutions stored at 10° C. for a predetermined time, and each of the above-mentioned samples.
An enzyme solution was prepared in the same manner as in Example 1 by use of the same reagents as in Example 1 except for using 26 mM of NAC in place of the CK reactivator(s) used in Example 1.
CK activity was measured by the same procedure as described in Example 1 except for using the above-mentioned enzyme solution and substrate solution, both solutions stored at 10° C. for a predetermined period, and each of the above-mentioned samples.

[5] = Sample 1, enzyme solution just after preparation, TG 100 mM, 2ME 26 mM, 2MES 26 mM, NAC 26 mM
[6] = Sample 1, enzyme solution stored at 10° C. for 1 month, TG 100, 2ME 26, 2MES 26, NAC 26, L-cysteine 6.5, GSH 12, TDG 5, DTT 6.5 mM
[7] = Sample 1, enzyme solution stored at 20° C. for 1 month, TG 100, 2ME 26, 2MES 26, NAC 26, L-cysteine 6.5, GSH 12, TDG 5, DTT 6.5 mM
[8] = Sample 2, enzyme solution just after preparation, TG 100 mM, 2ME 26 mM, 2MES 26 mM, NAC 26 mM
[9] = Sample 2, enzyme solution stored at 10° C. for 1 month, TG 100, 2ME 26, 2MES 26, NAC 26, L-cysteine 6.5, GSH 12, TDG 5, DTT 6.5 mM
[10] = Sample 2, enzyme solution stored at 20° C. for 1 month, TG 100, 2ME 26, 2MES 26, NAC 26, L-cysteine 6.5, GSH 12, TDG 5, DTT 6.5 mM
[11] = Sample 3, enzyme solution just after preparation, TG 100 mM, 2ME 26 mM, 2MES 26 mM, NAC 26 mM
[12] = Sample 3, enzyme solution stored at 10° C. for 1 month, TG 100, 2ME 26, 2MES 26, NAC 26, L-cysteine 6.5, GSH 12, TDG 5, DTT 6.5 mM
[13] = Sample 3, enzyme solution stored at 20° C. for 1 month, TG 100, 2ME 26, 2MES 26, NAC 26, L-cysteine 6.5, GSH 12, TDG 5, DTT 6.5 mM
[14] = Sample 4, enzyme solution just after preparation, TG 100 mM, 2ME 26 mM, 2MES 26 mM, NAC 26 mM
[15] = Sample 4, enzyme solution stored at 10° C. for 1 month, TG 100, 2ME 26, 2MES 26, NAC 26, L-cysteine 6.5, GSH 12, TDG 5, DTT 6.5 mM
[16] = Sample 4, enzyme solution stored at 20° C. for 1 month, TG 100, 2ME 26, 2MES 26, NAC 26, L-cysteine 6.5, GSH 12, TDG 5, DTT 6.5 mM
[17] = Sample 5, enzyme solution just after preparation, TG 100 mM, 2ME 26 mM, 2MES 26 mM, NAC 26 mM
[18] = Sample 5, enzyme solution stored at 10° C. for 1 month, TG 100, 2ME 26, 2MES 26, NAC 26, L-cysteine 6.5, GSH 12, TDG 5, DTT 6.5 mM
[19] = Sample 5, enzyme solution stored at 20° C. for 1 month, TG 100, 2ME 26, 2MES 26, NAC 26, L-cysteine 6.5, GSH 12, TDG 5, DTT 6.5 mM
[20] = enzyme solution just after preparation, TG 100 mM, 2ME 26 mM, 2MES 26 mM, NAC 26 mM
[21] = enzyme solution stored at 10° C. for 1 month, TG 100, 2ME 26, 2MES 26, NAC 26, L-cysteine 6.5, GSH 12, TDG 5, DTT 6.5 mM
[22] = enzyme solution stored at 20° C. for 1 month, TG 100, 2ME 26, 2MES 26, NAC 26, L-cysteine 6.5, GSH 12, TDG 5, DTT 6.5 mM
[23] = enzyme solution just after preparation
[24] = enzyme solution stored at 10° C. for 1 month
[25] = enzyme solution stored at 20° C. for 1 month
[26] = enzyme solution prepared at the time of use, 1 month measurement, 10 samples
[27] = enzyme solution prepared at the time of use, 3 month measurement, 10 samples
[28] = enzyme solution prepared at the time of use, 6 month measurement, 10 samples
[29] = enzyme solution prepared at the time of use, 7 month measurement, 10 samples
[30] = just after preparation, average of 10 human serum samples, TG 100 mM or NAC 26 mM
[31] = solutions stored at 10° C. for 1 month, 10 samples
[32] = solutions stored at 10° C. for 3 month, 10 samples
[33] = solutions stored at 10° C. for 6 month, 10 samples
[34] = solutions stored at 10° C. for 7 month, 10 samples

Row | Compound | CK activity value [3, 5] [IU/l] | CK activity value [3, 6] [IU/l] | CK activity value [3, 7] [IU/l] | CK activity value [3, 8] [IU/l] | CK activity value [3, 9] [IU/l] | CK activity value [3, 10] [IU/l] | CK activity value [3, 11] [IU/l] | CK activity value [3, 12] [IU/l] | CK activity value [3, 13] [IU/l] | CK activity value [3, 14] [IU/l] | CK activity value [3, 15] [IU/l] | CK activity value [3, 16] [IU/l] | CK activity value [3, 17] [IU/l] | CK activity value [3, 18] [IU/l] | CK activity value [3, 19] [IU/l] | CK activity value, Average [3, 20] [IU/l] | CK activity value, Average [3, 21] [IU/l] | CK activity value, Average [3, 22] [IU/l] | CK activity, relative value [3, 23] [%] | CK activity, relative value [3, 24] [%] | also measured
1 | Nc1cc(O)nc(S)n1.O [AHMP, 4-amino-6-hydroxy-2-mercaptopyrimidine monohydrate] |  |  |  |  |  |  |  |  |  |  |  |  |  |  |  |  |  |  |  |  | solubility [1]: low solubility
2 | CC(=O)N[C@@H](CSSC[C@H](NC(C)=O)C(=O)O)C(=O)O [NAC oxidized product] |  |  |  |  |  |  |  |  |  |  |  |  |  |  |  |  |  |  |  |  | effect on CK activity (CK activity): inhibits CK activity; CK activity value ([2]; Sample 1 (fresh human serum), 5 mM SH compound oxidized product): 124 IU/l.; CK activity value ([2]; Sample 2, 5 mM SH compound oxidized product): 342 IU/l.; CK activity value ([2]; Sample 3, 5 mM SH compound oxidized product): 87 IU/l.; CK activity value ([2]; Sample 4, 5 mM SH compound oxidized product): 272 IU/l.; CK activity value ([2]; Sample 5, 5 mM SH compound oxidized product): 80 IU/l.; CK activity value, Average ([2]; average of 5 samples, 5 mM SH compound oxidized product): 181 IU/l.; activity at 5000 µM ([2]; average with enzyme solution containing no SH compound oxidized product = 100%, 5 mM oxidized product, read-out: CK activity, relative value): 80.1%
3 | CC(=O)N[C@@H](CS)C(=O)O [NAC, N-acetylcysteine] | 183 | 184 | 166 | 544 | 550 | 499 | 151 | 152 | 136 | 56 | 55 | 50 | 87 | 88 | 78 | 204 | 206 | 186 | 100.0 | 101.0 | CK activity, relative value [3, 25]: 91.2%; measured value of CK activity after storage ([4]; after 3 months of storage at 10° C.): markedly lowered; average of CK activity values [4, 26]: 196 IU/l.; average of CK activity values [4, 27]: 192 IU/l.; average of CK activity values [4, 28]: 162 IU/l.; average of CK activity values [4, 29]: 192 IU/l.; average of CK activity values [4, 30]: 234 IU/l.; average of CK activity values [4, 31]: 190 IU/l.; average of CK activity values [4, 32]: 146 IU/l.; average of CK activity values [4, 33]: 64 IU/l.; average of CK activity values [4, 34]: 62 IU/l.; relative value of CK activity ([4]; stored at 10° C. for 1 month): 96.9%; relative value of CK activity ([4]; stored at 10° C. for 3 month): 76.0%; relative value of CK activity ([4]; stored at 10° C. for 6 month): 39.5%; relative value of CK activity ([4]; stored at 10° C. for 7 month): 32.3%
4 | OCC(O)CS (stereo not shown) [TG, thioglycerol] | 184 | 183 | 180 | 553 | 556 | 549 | 151 | 154 | 152 | 58 | 57 | 57 | 88 | 88 | 88 | 207 | 208 | 206 | 101.4 | 101.9 | retaining CK-reactivating ability for a long period of time in an aqueous solution [3]: capable of retaining CK-reactivating ability for a long period of time; CK activity, relative value [3, 25]: 100.9%; average of CK activity values [4, 26]: 204 IU/l.; average of CK activity values [4, 27]: 200 IU/l.; average of CK activity values [4, 28]: 168 IU/l.; average of CK activity values [4, 29]: 192 IU/l.; average of CK activity values [4, 30]: 240 IU/l.; average of CK activity values [4, 31]: 202 IU/l.; average of CK activity values [4, 32]: 198 IU/l.; average of CK activity values [4, 33]: 168 IU/l.; average of CK activity values [4, 34]: 190 IU/l.; relative value of CK activity ([4]; stored at 10° C. for 1 month): 99.0%; relative value of CK activity ([4]; stored at 10° C. for 3 month): 99.0%; relative value of CK activity ([4]; stored at 10° C. for 6 month): 100.0%; relative value of CK activity ([4]; stored at 10° C. for 7 month): 99.0%
